# Reference: ChEMBL document CHEMBL1201862, “PubChem BioAssay data set” (2004)
# Activity calls are given as the source filed them.
# Columns and labels:
# [1] = A cytotoxicity screen of small molecule inhibitors of the PhoP region in Salmonella typhi identified in the primary screen. [Related pubchem assays: 1850, 1864, 1985 ]; assay type: functional
# [2] = biological target: Prothrombin (Homo sapiens, UniProt P00734); assay: Thrombin 1536 HTS Dose Response Confirmation. [Related pubchem assays: 1046 (Thrombin 1536 HTS; hits were confirmed in this assay)]; assay type: functional
# [3] = biological target: T1, Coagulation factor XII (Homo sapiens, UniProt P00748); assay type: functional;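 also: activated factor XIIa alpha cleaving a fluorogenic AMC peptide substrate; inhibitor potency from loss of enzyme activity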
# T1 sequence (P00748 whole entry): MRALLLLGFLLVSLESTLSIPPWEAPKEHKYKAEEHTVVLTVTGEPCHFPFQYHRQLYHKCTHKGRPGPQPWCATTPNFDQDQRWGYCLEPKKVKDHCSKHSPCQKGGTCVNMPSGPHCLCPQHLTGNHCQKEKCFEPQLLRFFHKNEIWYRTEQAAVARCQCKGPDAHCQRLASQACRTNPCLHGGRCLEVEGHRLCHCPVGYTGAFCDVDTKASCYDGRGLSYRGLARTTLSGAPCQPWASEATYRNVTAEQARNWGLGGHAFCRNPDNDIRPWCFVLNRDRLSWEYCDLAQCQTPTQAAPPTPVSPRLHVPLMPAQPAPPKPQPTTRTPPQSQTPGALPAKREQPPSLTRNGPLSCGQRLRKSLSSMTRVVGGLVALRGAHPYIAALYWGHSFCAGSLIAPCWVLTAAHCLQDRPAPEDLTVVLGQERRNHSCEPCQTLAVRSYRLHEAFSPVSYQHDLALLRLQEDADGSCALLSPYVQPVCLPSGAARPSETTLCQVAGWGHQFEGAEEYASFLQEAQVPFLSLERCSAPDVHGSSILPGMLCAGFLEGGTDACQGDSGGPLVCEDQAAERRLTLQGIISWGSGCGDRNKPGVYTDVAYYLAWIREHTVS
# [4] = biological target: T2, SUMO-activating enzyme (Homo sapiens, UniProt Q9UBT2); assay: blockers of UBC9-mediated SUMO conjugation – biochemical, AlphaScreen, SUMOylation inhibitor project, confirmation (AID 2018); assay type: functional
# [5] = biological target: T2, SUMO-activating enzyme; assay: blockers of SAE1/SAE2–UBC9 SUMO transfer – biochemical, HTRF, uHTS, primary screen (AID 2006); assay type: protein-complex assay
# [6] = biological target: T3, Exodeoxyribonuclease V (Escherichia coli (strain K12), UniProt P04993+P07648+P08394); assay: RecBCD inhibition via phage-restricted bacterial growth – absorbance, V66 E. coli, mutant T4 phage, counter-screen for AddAB inhibitor project, dose response (AID 492957); assay type: functional, cell-based, Escherichia coli str. K-12 substr. MG1655
# T3 sequence (P04993 whole entry): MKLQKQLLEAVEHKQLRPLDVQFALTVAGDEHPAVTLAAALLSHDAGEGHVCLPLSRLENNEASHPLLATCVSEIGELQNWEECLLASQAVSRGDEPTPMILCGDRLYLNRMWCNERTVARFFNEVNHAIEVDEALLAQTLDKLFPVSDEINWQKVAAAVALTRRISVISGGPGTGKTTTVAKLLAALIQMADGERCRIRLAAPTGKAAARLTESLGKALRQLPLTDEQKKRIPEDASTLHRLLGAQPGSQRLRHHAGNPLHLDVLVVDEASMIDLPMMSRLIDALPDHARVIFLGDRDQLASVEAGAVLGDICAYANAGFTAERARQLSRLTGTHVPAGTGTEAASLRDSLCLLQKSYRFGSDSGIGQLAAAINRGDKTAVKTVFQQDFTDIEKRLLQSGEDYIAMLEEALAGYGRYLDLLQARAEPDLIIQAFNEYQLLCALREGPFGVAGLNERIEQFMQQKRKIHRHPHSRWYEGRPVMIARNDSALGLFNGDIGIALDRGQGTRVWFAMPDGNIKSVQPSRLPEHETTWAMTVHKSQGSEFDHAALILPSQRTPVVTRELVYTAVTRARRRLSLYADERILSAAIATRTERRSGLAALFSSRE
# T3 sequence (P07648 whole entry): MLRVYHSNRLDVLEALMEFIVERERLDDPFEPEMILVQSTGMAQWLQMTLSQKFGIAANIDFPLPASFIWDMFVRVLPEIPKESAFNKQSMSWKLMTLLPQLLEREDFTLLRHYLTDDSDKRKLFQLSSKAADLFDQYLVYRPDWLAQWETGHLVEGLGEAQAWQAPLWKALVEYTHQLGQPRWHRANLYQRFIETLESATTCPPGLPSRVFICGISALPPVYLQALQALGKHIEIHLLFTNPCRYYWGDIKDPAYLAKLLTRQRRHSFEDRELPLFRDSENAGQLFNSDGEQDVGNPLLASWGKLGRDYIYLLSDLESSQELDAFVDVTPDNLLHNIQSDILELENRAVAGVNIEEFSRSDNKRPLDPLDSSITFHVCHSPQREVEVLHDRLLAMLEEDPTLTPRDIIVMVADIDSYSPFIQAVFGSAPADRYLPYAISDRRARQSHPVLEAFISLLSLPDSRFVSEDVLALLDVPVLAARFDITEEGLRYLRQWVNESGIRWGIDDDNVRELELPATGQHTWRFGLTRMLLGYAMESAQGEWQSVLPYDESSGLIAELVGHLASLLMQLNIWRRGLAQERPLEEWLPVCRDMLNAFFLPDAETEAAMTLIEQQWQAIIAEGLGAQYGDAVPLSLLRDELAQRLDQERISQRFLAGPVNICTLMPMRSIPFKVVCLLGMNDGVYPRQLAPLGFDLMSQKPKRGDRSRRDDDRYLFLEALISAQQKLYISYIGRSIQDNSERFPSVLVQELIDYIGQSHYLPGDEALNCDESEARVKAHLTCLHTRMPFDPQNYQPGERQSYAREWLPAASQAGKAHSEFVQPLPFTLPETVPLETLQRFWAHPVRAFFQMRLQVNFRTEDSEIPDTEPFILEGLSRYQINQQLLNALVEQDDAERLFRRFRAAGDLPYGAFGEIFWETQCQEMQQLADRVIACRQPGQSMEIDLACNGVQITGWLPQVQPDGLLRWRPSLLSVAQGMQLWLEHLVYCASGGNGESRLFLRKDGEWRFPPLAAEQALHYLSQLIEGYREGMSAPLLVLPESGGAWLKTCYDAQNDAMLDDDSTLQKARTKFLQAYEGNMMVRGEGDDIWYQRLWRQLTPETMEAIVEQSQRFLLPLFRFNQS
# T3 sequence (P08394 whole entry): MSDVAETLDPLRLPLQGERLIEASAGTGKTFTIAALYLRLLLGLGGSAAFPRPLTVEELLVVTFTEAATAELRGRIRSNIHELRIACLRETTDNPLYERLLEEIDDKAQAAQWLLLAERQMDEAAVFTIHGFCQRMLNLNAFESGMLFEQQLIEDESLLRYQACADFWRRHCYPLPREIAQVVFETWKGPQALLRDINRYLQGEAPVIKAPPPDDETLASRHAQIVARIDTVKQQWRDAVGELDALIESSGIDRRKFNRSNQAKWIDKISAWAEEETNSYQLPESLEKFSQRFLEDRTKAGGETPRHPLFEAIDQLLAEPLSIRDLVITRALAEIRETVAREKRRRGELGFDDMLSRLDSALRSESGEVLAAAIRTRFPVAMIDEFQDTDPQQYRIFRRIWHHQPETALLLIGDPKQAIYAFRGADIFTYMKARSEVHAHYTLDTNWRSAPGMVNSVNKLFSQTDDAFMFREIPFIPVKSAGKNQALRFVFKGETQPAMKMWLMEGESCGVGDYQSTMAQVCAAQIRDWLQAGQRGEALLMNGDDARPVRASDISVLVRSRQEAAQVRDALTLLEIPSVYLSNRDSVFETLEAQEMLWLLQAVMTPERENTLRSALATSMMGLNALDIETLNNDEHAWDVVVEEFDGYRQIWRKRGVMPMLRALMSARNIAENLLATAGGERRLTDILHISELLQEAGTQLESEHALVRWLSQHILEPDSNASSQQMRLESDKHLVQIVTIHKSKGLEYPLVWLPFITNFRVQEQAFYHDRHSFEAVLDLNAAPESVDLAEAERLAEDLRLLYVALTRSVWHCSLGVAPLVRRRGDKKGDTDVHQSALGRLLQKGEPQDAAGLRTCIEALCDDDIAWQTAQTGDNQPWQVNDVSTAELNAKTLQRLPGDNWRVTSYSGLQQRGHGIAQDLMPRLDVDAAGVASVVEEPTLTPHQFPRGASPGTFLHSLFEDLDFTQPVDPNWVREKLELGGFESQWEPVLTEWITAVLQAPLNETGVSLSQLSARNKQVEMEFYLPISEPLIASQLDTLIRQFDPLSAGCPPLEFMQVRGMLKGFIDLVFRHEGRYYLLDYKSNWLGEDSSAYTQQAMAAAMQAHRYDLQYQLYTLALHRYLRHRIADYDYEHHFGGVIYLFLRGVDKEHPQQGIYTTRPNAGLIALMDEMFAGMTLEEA
# [7] = Counterscreen for AddAB inhibitors: absorbance-based bacterial cell-based high throughput dose response assay for inhibitors of bacterial viability. [Related pubchem assays (depositor defined):AID435030, AID449728, AID449731, AID488942, AID488955, AID488956]; assay type: functional
# [8] = biological target: Albumin (Bos taurus, UniProt P02769); assay: Counterscreen for inhibitors of T-cell receptor (TCR)-CD3 interaction: Fluorescence-based biochemical high throughput dose response assay to identify inhibitors of T-cell receptor (TCR)-CD3 interaction using a TAMRA-labeled BSA probe.; assay type: functional
# [9] = viability of HCT116 lacking mutant beta-catenin – cell-based, human colon tumor, dose response (AID 1045); assay type: functional;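 also: HCT116 colon tumor cells with beta catenin knocked out; cells exposed to compound for 60 hours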
# [10] = A Cell Based Secondary Assay To Explore Cytotoxicity of Compounds that Sensitize Mycobacterium Tuberculosis to Beta-Lactam Antibiotics.; assay type: functional
# [11] = biological target: T4, Heat shock factor protein 1 (Mus musculus, UniProt P38532); assay: decrease of HSF1-responsive luciferase luminescence – cell-based, NIH3T3, dose retest, confirmation (AID 2382); assay type: functional;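 also: NIH3T3 fibroblasts with HSF1-driven luciferase reporter stressed by proteasome inhibitor MG132; luminescence from HSF1-driven luciferase expression after 8 hours of MG132 stress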
# T4 sequence (P38532 whole entry): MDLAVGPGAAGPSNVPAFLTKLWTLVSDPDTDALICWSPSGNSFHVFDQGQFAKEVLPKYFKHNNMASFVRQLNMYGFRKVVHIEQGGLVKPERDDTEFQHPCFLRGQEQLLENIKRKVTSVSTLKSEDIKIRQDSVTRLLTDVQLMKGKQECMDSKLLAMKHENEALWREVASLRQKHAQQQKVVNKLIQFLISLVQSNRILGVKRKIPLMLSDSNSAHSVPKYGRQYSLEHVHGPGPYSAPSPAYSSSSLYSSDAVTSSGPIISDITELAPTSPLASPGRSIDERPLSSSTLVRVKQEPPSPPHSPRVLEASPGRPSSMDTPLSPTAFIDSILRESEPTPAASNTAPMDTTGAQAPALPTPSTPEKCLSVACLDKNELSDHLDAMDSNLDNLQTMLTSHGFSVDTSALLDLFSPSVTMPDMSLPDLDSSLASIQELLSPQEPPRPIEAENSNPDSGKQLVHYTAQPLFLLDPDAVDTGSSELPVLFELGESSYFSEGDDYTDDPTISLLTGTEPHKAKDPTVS
# [12] = HEK-293T viability loss after treatment – luminescence, T-cell screen hits, cytotoxicity control for TCR NF-kB inhibitor project, dose response (AID 489026); assay type: functional, cell-based;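 also: cells exposed to compound about 14 hours before the viability readout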
# [13] = tested on: INS1; assay: INS-1E survival protection against cytokine death – cell-based, luminescence, retest, dose response (AID 449756); assay type: functional; details: Rattus norvegicus;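 also: cell death triggered by IL-1 beta plus TNF-alpha plus IFN-gamma mixture; protective hits raise ATP signal compared with cytokine alone wells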
# [14] = reduction of Shn3 3'UTR-driven luciferase in osteoblasts – cell-based, Clone20 osteoblasts, firefly luciferase, cherry-picked, dose response (AID 624132); assay type: functional;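 also: firefly luciferase luminescence from reporter carrying the Shn3 3'UTR in osteoblasts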
# [15] = loss of viability in HepG2 cells – cell-based, CellTiter-Glo, cherry-picked, cytotoxicity control for Shn3 inhibitor project, dose response (AID 624134); assay type: functional
# [16] = non-specific 3'UTR reporter inhibition in Clone20-Shn3RL – cell-based, Renilla luciferase, cherry-picked, counter-screen for Shn3 inhibitor project, dose response (AID 624133); assay type: functional
# T2 sequence (Q9UBE0 whole entry): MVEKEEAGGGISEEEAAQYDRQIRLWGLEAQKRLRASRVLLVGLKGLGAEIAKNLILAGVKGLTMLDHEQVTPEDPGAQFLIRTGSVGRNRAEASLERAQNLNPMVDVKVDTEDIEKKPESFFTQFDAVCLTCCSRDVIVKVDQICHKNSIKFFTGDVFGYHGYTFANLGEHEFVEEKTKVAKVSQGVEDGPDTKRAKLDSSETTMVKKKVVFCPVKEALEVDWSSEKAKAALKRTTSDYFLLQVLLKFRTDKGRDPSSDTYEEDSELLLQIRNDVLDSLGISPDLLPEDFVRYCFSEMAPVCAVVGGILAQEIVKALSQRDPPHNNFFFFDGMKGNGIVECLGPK
# T2 sequence (Q9UBT2 whole entry): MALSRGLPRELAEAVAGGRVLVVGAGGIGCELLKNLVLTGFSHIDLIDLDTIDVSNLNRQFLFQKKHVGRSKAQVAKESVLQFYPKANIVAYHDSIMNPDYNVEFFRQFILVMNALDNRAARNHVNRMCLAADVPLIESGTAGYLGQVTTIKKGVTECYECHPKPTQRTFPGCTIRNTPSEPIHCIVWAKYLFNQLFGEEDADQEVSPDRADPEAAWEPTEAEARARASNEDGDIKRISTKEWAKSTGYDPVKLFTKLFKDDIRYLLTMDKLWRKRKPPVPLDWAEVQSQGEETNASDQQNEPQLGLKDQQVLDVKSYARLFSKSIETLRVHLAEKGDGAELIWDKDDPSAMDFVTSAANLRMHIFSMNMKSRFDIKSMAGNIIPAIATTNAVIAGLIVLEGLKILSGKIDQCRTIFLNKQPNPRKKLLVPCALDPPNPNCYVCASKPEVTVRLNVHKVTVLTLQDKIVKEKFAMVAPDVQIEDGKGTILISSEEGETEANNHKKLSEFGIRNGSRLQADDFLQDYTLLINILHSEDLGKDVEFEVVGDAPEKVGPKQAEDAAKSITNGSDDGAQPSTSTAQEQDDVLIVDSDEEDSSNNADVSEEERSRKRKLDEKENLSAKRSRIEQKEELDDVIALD
# Albumin, sequence (P02769 whole entry): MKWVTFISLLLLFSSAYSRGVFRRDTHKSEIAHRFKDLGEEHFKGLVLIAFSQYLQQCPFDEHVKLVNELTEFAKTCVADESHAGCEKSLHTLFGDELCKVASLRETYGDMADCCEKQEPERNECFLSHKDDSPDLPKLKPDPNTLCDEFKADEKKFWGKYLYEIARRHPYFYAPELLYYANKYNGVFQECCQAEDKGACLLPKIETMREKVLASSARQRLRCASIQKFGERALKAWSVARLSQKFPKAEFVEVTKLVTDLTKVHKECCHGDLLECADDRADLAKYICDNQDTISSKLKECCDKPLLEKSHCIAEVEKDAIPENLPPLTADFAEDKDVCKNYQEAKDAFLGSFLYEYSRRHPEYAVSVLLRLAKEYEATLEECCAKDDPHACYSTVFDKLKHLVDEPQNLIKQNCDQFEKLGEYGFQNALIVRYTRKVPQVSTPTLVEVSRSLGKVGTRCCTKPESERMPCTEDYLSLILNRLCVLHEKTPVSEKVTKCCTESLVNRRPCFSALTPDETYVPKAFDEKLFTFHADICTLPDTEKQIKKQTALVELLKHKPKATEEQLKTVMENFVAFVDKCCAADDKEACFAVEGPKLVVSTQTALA
smiles,measurement,setting,value
COC(=O)Cn1c(=O)c(C)nc2ccccc21,EC50,[1],> 50 µM (active)
CN(C)C(=O)CSc1nnc([C@@H](N)Cc2ccccc2)o1,IC50,[2],> 50 µM (not active)
same,IC50,[3],> 50 µM (inactive)
COCc1n[nH]c2c1C(c1c(F)cccc1Cl)C(C#N)=C(N)O2 (stereo not given),EC50,[1],> 50 µM (active)
CN(Cc1ccccc1O)CC1CCCN(CCc2ccc(Cl)cc2)C1 (stereo not given),EC50,[1],> 50 µM (active)
Cc1c(NC(=O)CSc2nc3ccccc3s2)c(=O)n(-c2ccccc2)n1C,IC50,[3],> 50 µM (inactive)
COc1cccc(/C=C2/SC(=S)N(CC(=O)NNC(=O)c3ccccc3O)C2=O)c1,IC50,[4],29.4 µM (active)
same,IC50,[5],11.8 µM (active)
same,IC50,[6],> 119 µM (inactive)
same,IC50,[7],> 119 µM (inactive)
same,IC50,[8],> 94.1 µM (inactive)
CCOC(=O)c1cc2sccc2n1CC(=O)N1c2ccccc2CC1C (stereo not given),EC50,[9],445 µM (active)
same,IC50,[3],> 50 µM (inactive)
C=C(C)C(=O)O[C@H]1C/C(C)=C\C(=O)/C=C(\C)[C@H](O)[C@@H]2OC(=O)C(=C)[C@@H]21,CC50,[10],3.71 µM (active)
same,EC50,[11],8.1 µM (active)
same,IC50,[12],> 80 µM (inactive)
same,AC50,[13],8.02 µM (active)
same,AC50,[14],3.02 µM (active)
same,AC50,[15],6.81 µM (active)
same,AC50,[16],11.1 µM (active)
